# Results published in US11752138B2 (VANDERBILT UNIVERSITY, priority 2020, dated 2023).
# Target: Human LDHA (Homo sapiens (Human), UniProt P00338)
# Experiment: human LDHA primary biochemical assay (Example 1)
# Settings: biochemical LDHA inhibitory activity, assay of Example 1
# Source text: This example describes a human LDHA primary biochemical assay employed in the characterization of a compound of Formula I in an embodiment of the dislcosure.
# Test compounds were placed in a Greiner Bio-One (Monroe, N.C.) 1536-well black solid bottom assay plate. 200 millimolar (mM) Tris HCl, pH 7.4, 100 micromolar (μM) EDTA and 0.01% TWEEN-20™, final concentration, was used as the assay buffer. The LDHA reagent was 2 nanomolar (nM) Human LDHA (Meridian Life Science, Inc., Memphis, Tenn.), final concentration, in assay buffer. The substrate reagent was 0.06 mM NADH and 0.2 mM sodium pyruvate, final concentration, in assay buffer. The resazurin/diaphorase coupling reagent was 0.037 mM resazurin and 0.133 milligrams per milliliter (mg/mL) diaphorase, final concentration, in assay buffer. The inhibition of LDHA activity was measured by fluorescence emission. […]
row,Compound,IC50 [nM]
1,"NS(=O)(=O)c1ccc(Cc2c(-c3cccc(-c4ccc(C5CC5)cc4)c3)nn(-c3nc(C(=O)O)cs3)c2CC2CC2)cc1F [Compound 222, 2-(3-(4′-cyclopropyl-[1,1′-biphenyl]-3-yl)-5-(cyclopropylmethyl)-4-(3-fluoro-4-sulfamoylbenzyl)-1H-pyrazol-1-yl)thiazole-4-carboxylic acid]",100 to 1000
2,"Cc1ncc(C#Cc2cccc(-c3nn(-c4nc(C(=O)O)cs4)c(CCC4CC4)c3Cc3ccc(S(N)(=O)=O)c(F)c3)c2)s1 [Compound 235, 2-(5-(2-cyclopropylethyl)-4-(3-fluoro-4-sulfamoylbenzyl)-3-(3-((2-methylthiazol-5-yl)ethynyl)phenyl)-1H-pyrazol-1-yl)thiazole-4-carboxylic acid]",< 100
3,"Cc1nc(C#Cc2cccc(-c3nn(-c4nc(C(=O)O)cs4)c(CC4CC4)c3Cc3ccc(S(N)(=O)=O)c(F)c3)c2)cs1 [Compound 236, 2-(5-(cyclopropylmethyl)-4-(3-fluoro-4-sulfamoylbenzyl)-3-(3-((2-methylthiazol-4-yl)ethynyl)phenyl)-1H-pyrazol-1-yl)thiazole-4-carboxylic acid]",< 100
4,"Cc1cc(C#Cc2cccc(-c3nn(-c4nc(C(=O)O)cs4)c(CC4CC4)c3Cc3ccc(S(N)(=O)=O)c(F)c3)c2)cs1 [Compound 240, 2-(5-(cyclopropylmethyl)-4-(3-fluoro-4-sulfamoylbenzyl)-3-(3-((5-methylthiophen-3-yl)ethynyl)phenyl)-1H-pyrazol-1-yl)thiazole-4-carboxylic acid]",< 100
5,"Cc1ccc(C(=O)Cc2cccc(-c3nn(-c4nc(C(=O)O)cs4)c(CC4CC4)c3Cc3ccc(S(N)(=O)=O)c(F)c3)c2)s1 [Compound 242, 2-(5-(cyclopropylmethyl)-4-(3-fluoro-4-sulfamoylbenzyl)-3-(3-(2-(5-methylthiophen-2-yl)-2-oxoethyl)phenyl)-1H-pyrazol-1-yl)thiazole-4-carboxylic acid]",< 100
6,"Cc1nc(C#Cc2cccc(-c3nn(-c4nc(C(=O)O)cs4)c(CCC4CC4)c3Cc3ccc(S(N)(=O)=O)c(F)c3)c2)cs1 [Compound 243, 2-(5-(2-cyclopropylethyl)-4-(3-fluoro-4-sulfamoylbenzyl)-3-(3-((2-methylthiazol-4-yl)ethynyl)phenyl)-1H-pyrazol-1-yl)thiazole-4-carboxylic acid]",< 100
7,"Cc1ccc(C#Cc2cccc(-c3nn(-c4nc(C(=O)O)co4)c(CC4CC4)c3Cc3ccc(S(N)(=O)=O)c(F)c3)c2)s1 [Compound 247, 2-(5-(cyclopropylmethyl)-4-(3-fluoro-4-sulfamoylbenzyl)-3-(3-((5-methylthiophen-2-yl)ethynyl)phenyl)-1H-pyrazol-1-yl)oxazole-4-carboxylic acid]",< 100

# The next lines start with the values.
row,IC50 [nM],Compound
1,< 100,"Cc1ncc(-c2cccc(-c3nn(-c4nc(C(=O)O)cs4)c(CC4CC4)c3Cc3ccc(S(N)(=O)=O)c(F)c3)c2)cn1 [Compound 214, 2-[5-(cyclopropylmethyl)-4-[(3-fluoro-4-sulfamoylphenyl)methyl]-3-[3-(2-methylpyrimidin-5-yl)phenyl]pyrazol-1-yl]-1,3-thiazole-4-carboxylic acid]"
2,< 100,"CC(C)c1cnc(-c2cccc(-c3nn(-c4nc(C(=O)O)cs4)c(CC4CC4)c3Cc3ccc(S(N)(=O)=O)c(F)c3)c2)s1 [Compound 215, 2-[5-(cyclopropylmethyl)-4-[(3-fluoro-4-sulfamoylphenyl)methyl]-3-[3-(5-isopropyl-1,3-thiazol-2-yl)phenyl]pyrazol-1-yl]-1,3-thiazole-4-carboxylic acid]"
3,< 100,"Cc1cnc(-c2cccc(-c3nn(-c4nc(C(=O)O)cs4)c(CC4CC4)c3Cc3ccc(S(N)(=O)=O)c(F)c3)c2)nc1 [Compound 217, 2-[5-(cyclopropylmethyl)-4-[(3-fluoro-4-sulfamoylphenyl)methyl]-3-[3-(5-methylpyrimidin-2-yl)phenyl]pyrazol-1-yl]-1,3-thiazole-4-carboxylicacid]"
4,< 100,"NS(=O)(=O)c1ccc(Cc2c(-c3cccc(-c4ccc(C(F)(F)F)cc4)c3)nn(-c3nc(C(=O)O)cs3)c2CC2CC2)cc1F [Compound 219, 2-(5-(cyclopropylmethyl)-4-(3-fluoro-4-sulfamoylbenzyl)-3-(4′-(trifluoromethyl)-[1,1′-biphenyl]-3-yl)-1H-pyrazol-1-yl)thiazole-4-carboxylic acid]"
5,< 100,"NS(=O)(=O)c1ccc(Cc2c(-c3cccc(-c4ccc5c(c4)CCC5)c3)nn(-c3nc(C(=O)O)cs3)c2CC2CC2)cc1F [Compound 220, 2-(5-(cyclopropylmethyl)-3-(3-(2,3-dihydro-1H-inden-5-yl)phenyl)-4-(3-fluoro-4-sulfamoylbenzyl)-1H-pyrazol-1-yl)thiazole-4-carboxylic acid]"
6,< 100,"Cc1cc(-c2cccc(-c3nn(-c4nc(C(=O)O)cs4)c(CC4CC4)c3Cc3ccc(S(N)(=O)=O)c(F)c3)c2)ccc1O [Compound 228, 2-(5-(cyclopropylmethyl)-4-(3-fluoro-4-sulfamoylbenzyl)-3-(4′-hydroxy-3′-methyl-[1,1′-biphenyl]-3-yl)-1H-pyrazol-1-yl)thiazole-4-carboxylic acid]"
7,< 100,"NS(=O)(=O)c1ccc(Cc2c(-c3cccc(-c4ccc(O)c(F)c4)c3)nn(-c3nc(C(=O)O)cs3)c2CC2CC2)cc1F [Compound 229, 2-(5-(cyclopropylmethyl)-3-(3′-fluoro-4′-hydroxy-[1,1′-biphenyl]-3-yl)-4-(3-fluoro-4-sulfamoylbenzyl)-1H-pyrazol-1-yl)thiazole-4-carboxylic acid]"
8,< 100,"Cc1ccc(C#Cc2cccc(-c3nn(-c4nc(C(=O)O)cs4)c(CC4CC4)c3Cc3ccc(S(N)(=O)=O)c(F)c3)n2)s1 [Compound 231, 2-(5-(cyclopropylmethyl)-4-(3-fluoro-4-sulfamoylbenzyl)-3-(6-((5-methylthiophen-2-yl)ethynyl)pyridin-2-yl)-1H-pyrazol-1-yl)thiazole-4-carboxylic acid]"
9,< 100,"Cc1ccc(C#Cc2cccc(-c3nn(-c4nc(C(=O)O)cs4)c(CCC4CC4)c3Cc3ccc(S(N)(=O)=O)c(F)c3)c2)o1 [Compound 232, 2-(5-(2-cyclopropylethyl)-4-(3-fluoro-4-sulfamoylbenzyl)-3-(3-((5-methylfuran-2-yl)ethynyl)phenyl)-1H-pyrazol-1-yl)thiazole-4-carboxylic acid]"
10,< 100,"Cc1cnc(C#Cc2cccc(-c3nn(-c4nc(C(=O)O)cs4)c(CCC4CC4)c3Cc3ccc(S(N)(=O)=O)c(F)c3)c2)s1 [Compound 234, 2-(5-(2-cyclopropylethyl)-4-(3-fluoro-4-sulfamoylbenzyl)-3-(3-((5-methylthiazol-2-yl)ethynyl)phenyl)-1H-pyrazol-1-yl)thiazole-4-carboxylic acid]"

# Tested on: LDH
# Experiment: LDH activity in mice liver lysates, rate of conversion of glyoxylate to oxalate (FIG. 2)
# Type: in vivo
# Settings: 5-10 mg/kg, oral daily dose for 5 days; liver harvested two hours after last dose; wild type and AGXT null mice
# Experimental: FIG. 2. LDH activity as measured by the rate of conversion of glyoxylate (G) to oxalate (O) in mice livers. Wild type mice, closed circles; AGXT null mice; open squares. […] Liver was harvested from animals two hours after delivery of the last drug dose. Enzyme assays were performed with liver lysates in 0.1M Glycine-Sodium hydroxide buffer, pH 9.6, 20 mM glyoxylate, 3.25 mM NAD+, and the rate of increase in absorbance at 340 nm monitored at room temperature
row,Compound,"suppression of oxalate production in mice liver (LDH activity, glyoxylate to oxalate)"
1,"Cc1ccc(C#Cc2cccc(-c3nn(-c4nc(C(=O)O)co4)c(CC4CC4)c3Cc3ccc(S(N)(=O)=O)c(F)c3)c2)s1 [Compound 247, 2-(5-(cyclopropylmethyl)-4-(3-fluoro-4-sulfamoylbenzyl)-3-(3-((5-methylthiophen-2-yl)ethynyl)phenyl)-1H-pyrazol-1-yl)oxazole-4-carboxylic acid]",Maximal suppression of oxalate production
